Measurements reported in US20190008920A1, “OPHTHALMIC COMPOSITIONS AND METHODS OF USE” (Ocugen, Inc., priority 2017, published 2019).

What was measured:
[1] = ophthalmic solution 5.0%, administered twice daily; cited from earlier work
[2] = brimonidine tartrate + cyclosporine nanoemulsion formulation
Method: The partitioning of active pharmaceutical ingredients in oil and aqueous phases of these exemplary nanoemulsion formulations were determined using RP-HPLC methods. […] In nanoemulsion formulation, oil and aqueous phase were separated using ultrafiltration unit by centrifugation process. Quantity of APIs in these oil and aqueous phase was quantified using HPLC method.

Row | Compound | symptoms of ocular discomfort and eye dryness compared with placebo [1] | fraction of API partitioned in aqueous phase ([2]; aqueous phase) | fraction of API partitioned in oil phase ([2]; oil phase)
1 | CS(=O)(=O)c1cccc(C[C@H](NC(=O)c2c(Cl)cc3c(c2Cl)CCN(C(=O)c2ccc4ccoc4c2)C3)C(=O)O)c1 [Lifitegrast, N-{[2-(1-Benzofuran-6-ylcarbonyl)-5,7-dichloro-1,2,3,4-tetrahydro-6-isoquinolinyl]carbonyl}-3-(methylsulfonyl)-L-phenylalanine] | improve symptoms of ocular discomfort and eye dryness | – | –
2 | Brc1c(NC2=NCCN2)ccc2nccnc12 [brimonidine, 5-Bromo-N-(4,5-dihydro-1H-imidazol-2-yl) quinoxalin-6-amine] | – | ~70% | ~30%
